Where two headings read alike, the source gives them in different places.
Legend:
Assay in all cases: […]bicarbonate incorporation into malonyl-CoA
Type in all cases: biochemical
[1] = target: T1, ACCase (Phalaris paradoxa); conditions: 1.5 mM ATP, 5 mM acetyl-CoA, 5 mM MgCl2, 15 mM NaH14CO3, pH 8.3, 34 °C, S biotype, read-out: I50
T1 construct: cytosolic form not separated

ACCase (Phalaris minor) = target: T2, ACCase (Phalaris minor); conditions: 1.5 mM ATP, 5 mM acetyl-CoA, 5 mM MgCl2, 15 mM NaH14CO3, pH 8.3, 34 °C, S biotype, read-out: I50
T2 construct: cytosolic form not separated

[2] = target: T3, ACCase (Phalaris brachystachys); conditions: 1.5 mM ATP, 5 mM acetyl-CoA, 5 mM MgCl2, 15 mM NaH14CO3, pH 8.3, 34 °C, R biotype (zygosity not given), stated gain, read-out: I50
T3 construct: cytosolic form not separated

[3] = target: T3, ACCase (Phalaris brachystachys); conditions: 1.5 mM ATP, 5 mM acetyl-CoA, 5 mM MgCl2, 15 mM NaH14CO3, pH 8.3, 34 °C, S biotype, read-out: I50
[4] = table labels herbicide diclofop-methyl, methods say DM acid

| SMILES | IC50 [1, 4] [nM] | IC50 (ACCase (Phalaris minor); [4]) [nM] | IC50 [2, 4] [nM] | IC50 [3, 4] [nM] | IC50 [1] [nM] | IC50 (ACCase (Phalaris minor)) [nM] | IC50 [2] [nM] | IC50 [3] [nM] |
| --- | --- | --- | --- | --- | --- | --- | --- | --- |
| CC(Oc1ccc(Oc2ccc(Cl)cc2Cl)cc1)C(=O)O (stereo not drawn) [DM acid] | 590 ± 230 | 850 ± 30 | 6650 ± 780 | 320 ± 50 | – | – | – | – |
| CCCC(=NOCC)C1=C(O)CC(C2CCCSC2)CC1=O (stereo not drawn) [cycloxydim] | – | – | – | – | 460 ± 60 | 670 ± 910 | 2400 ± 340 | 220 ± 20 |
| CCc1cc(C)cc(CC)c1-c1c(OC(=O)C(C)(C)C)n2n(c1=O)CCOCC2 [pinoxaden] | – | – | – | – | 660 ± 90 | 590 ± 70 | 14400 ± 1900 | 780 ± 10 |

— publication PMC8401167, “Point Mutations and Cytochrome P450 Can Contribute to Resistance to ACCase-Inhibiting Herbicides in Three Phalaris Species” (Plants, 2021)
